Several values for one entry are separate records, joined by “and”; a condition that tells them apart may be missing. Equal entries are not always repeated.
How the values were obtained:
[1] = Calcein AM viability test on ATRA-differentiated SH-SY5Y cells; format: cell-based, human; settings: human, ATRA-differentiated SH-SY5Y neuroblastoma cells, DMSO control = 100%, read-out: % of viability, relative to control; for viability at 24 h, 0.1 µM: 0.1 μM compound; for viability at 24 h, 1 µM: 1 μM compound; for viability at 24 h, 10 µM: 10 μM compound
Protocol: (§1) The SH-SY5Y human neuroblastoma cell line obtained as kind gift from Walter d'Acunto (originally purchased from ATCC—American Type Culture Collection (Manassas, VA, USA) was cultivated in Dulbecco's modified Eagle's Medium and Ham's F12 Nutrient Mixture (DMEM:F-12, 1:1), supplemented with 10% fetal bovine serum (FBS) and 1% penicillin and streptomycin at 37° C. in a humidified atmosphere 5% CO2, 95% air in passage limit up to ATCC+15. The assay was performed in 96-well microplate with 7000 SH-SY5Y cells per well. Next day, SH-SY5Y underwent all-trans retinoic acid (ATRA)-differentiation for 48 h (ATRA 10 μM). After 48 h, old DMEM/F12 media was removed by fresh media containing tested compounds at 0.1, 1 and 10 μM concentrations for 24 h. The tested compounds were dissolved in DMSO were added into the medium. The maximum concentration of DMSO in media was kept below 0.1% (v/v). The cell viability was measured by Calcein AM (1 mg/ml ThermoFisher) viability assay. Solution of Calcein AM in PBS (0.5 uM) was pipetted to cells and incubated for 50 minutes. After that the fluorescence was measured at 488/517 nm (excitation/emission) using microplate reader Infinite M200 (TECAN). Calcein AM assay is based on the dye-intracellular-esterase cleavage of non-fluorescent dye (Calcein AM) by living cells to fluorescent dye (Calcein), while dyeing cells that lose such ability. The values in Table 4 show % of viability, relative to control of all tested compounds. The control (medium with DMSO, <0.1% (v/v)) was postulated as 100% viability (see the first line of the table).

[2] = test system: SH-SY5Y human neuroblastoma cell line (differentiated phenotype); assay: Viability test, salsolinol-induced model of Parkinson's disease in differentiated SH-SY5Y (Calcein AM); format: cell-based; settings: 24 h
Protocol: as §1
Similarly, to the previous test the assay was performed in 96-well microplates with 7000 SH-SY5Y cells per well. Day after the seeding of cells, SH-SY5Y underwent all-trans retinoic acid (ATRA)-differentiation for 48 h (ATRA 10 μM). After 48 h, old DMEM/F12 media was removed by fresh media containing 500 μM dopaminergic neurotoxin Salsolinol (SAL) without or with tested compounds at 0.1, 1 and 10 μM concentrations. […] After 24 h the cell viability was measured by Calcein AM viability assay.

[3] = test system: SH-SY5Y human neuroblastoma cell line; assay: Oxidative stress measurement (dihydroethidium, superoxide) in SH-SY5Y, salsolinol-induced model of PD; format: cell-based; settings: 6 h; for activity at 1 µM: 1 μM compound with SAL 500 μM; for activity at 1 µM / activity at 10 µM: read-out: Oxidative stress (% of control); for reduction of oxidative stress induced by Salsolinol (in words): SAL 500 μM, compounds 1 and 10 μM
Protocol: The assay was performed in 96-well microplate with 7000 cells/well. Next day, SH-SY5Y underwent differentiation protocol for 48 h see above. Treatment procedure remained the same as in previous section (Cell treatment and viability/cytotoxicity assays). Additionally, oxidative stress (OS) inducers such as 6-hydroxydopamine (6-OHDA) and glutamate (Glu) alone were used as […]. Negative controls determined threshold of excessive OS. […] After 30 minutes, DHE was read at 500 nm/580 nm (excitation/emission). DHE is cell permeable dye which is selective toward superoxide radical detection.

[4] = Radical scavenging activity by ORAC assay; settings: NAUC relative to trolox; mean ± SD (n = 3)
Protocol: The ability of compounds to scavenge free radicals in vitro was determined by Oxygen Radical Absorbance Capacity (ORAC) method. In brief, fluorescein (100 μL, […]) and 25 μL of tested compound solution were added into each working well in a 96-well microplate preincubated at 37° C. Thereafter, 25 μL of 250 mM 2,2′-azobis(2-amidino-propan)dihydrochloride (AAPH) was quickly added, microplate was shaken for 5 s and the fluorescence (Ex. 485 nm, Em. 510 nm) was read every 3 min over 90 min by using microplate reader Infinite 200 (TECAN, Switzerland). The NAUC value (Net Area Under Curve) was used to express antioxidant activity relative to trolox (hydrophilic equivalent of vitamin E postulated as a standard). Substances with an ORAC value greater than 0 actively trap free radicals.

[5] = test system: Nrf2; assay: Activation of Nrf2-dependent expression, EpRE-LUX reporter cell line; format: cell-based; settings: 24 h; tested at 100, 10, 1 and 0.1 μM, concentration of the printed value not stated; mean ± SD (n = 3)
Protocol: The ability of compounds to activate Nrf2-dependent expression was determined by EpRE-LUX reporter cell line. In brief, compounds at 100, 10, 1 and 0.1 μM concentrations of the tested compounds were incubated for 24 h with the cells. After cells lysis (10 mM Tris, 2 mM DTT), a buffer containing 0.2 mM luciferin was added to start luminescent reaction. The increase in luminescence was measured with microplate reader Infinite M200 (TECAN). Compounds with Nrf2 value higher than 0 are strong Nrf2 activators and thus will be useful agents for the treatment of neurodegenerative diseases associated with oxidative stress.

[6] = 0.1 μM compound with 500 μM Salsolinol
[7] = 1 μM compound with 500 μM Salsolinol
[8] = 10 μM compound with 500 μM Salsolinol
[9] = Homo sapiens, SH-SY5Y, 10 μM compound with SAL 500 μM

SMILES | viability at 24 h, 0.1 µM [1] | viability at 24 h, 1 µM [1] | viability at 24 h, 10 µM [1] | Neuroprotective effect (% of control) [2, 6] | Neuroprotective effect (% of control) [2, 7] | Neuroprotective effect (% of control) [2, 8] | activity at 1 µM ([3]; Homo sapiens, SH-SY5Y) | activity at 10 µM [3, 9] | ORAC (compound/trolox) [4] | Nrf2 (relative luminiscence) [5] | reduction of oxidative stress induced by Salsolinol (in words) [3] | activity at 30 µM ([3]; Homo sapiens, SH-SY5Y, 6-OHDA 30 μM alone (negative control)) | Oxidative stress (% of control) ([3]; Glu 160 mM alone (negative control)) | decrease in percentages of alive cells ([2]; 500 μM Salsolinol alone) | Oxidative stress (% of control) ([3]; Salsolinol 500 μM alone, DMSO control = 100%) | Oxidative stress (% of control) ([3]; 10 μM compound with SAL 500 μM)
c1ccc(Cn2cnc3c(N4CCCC4)nc(N4CCCCC4)nc32)cc1 [Compound 77, 9-Benzyl-2-(piperidin-1-yl)-6-(pyrrolidin-1-yl)-9H-purine] | 107% | 118% | 117% | 4.64 % of control | 12.11 % of control | 13.8 % of control | 118% | 127% | 0.028 ± 0.001 compound/trolox | 0.16 ± 0.04 relative luminiscence | – | – | – | – | – | –
Oc1ccc(Cn2cnc3c(N4CCCC4)nc(N4CCCC4)nc32)cc1 [Compound 30, 9-(4-hydroxybenzyl)-2,6-di(pyrrolidin-1-yl)-9H-purine] | 99.5% | 111% | 123% | 10.62 % of control | – | 26.41 % of control | 95.9% | 97.4% | 0.422 ± 0.034 compound/trolox | 0.29 ± 0.11 relative luminiscence | highest potency toward the reduction of oxidative stress | – | – | – | – | –
NCCc1cc(O)c(O)cc1O [Compound 6-OHDA, 6-hydroxydopamine, reference compound] | – | – | – | – | – | – | – | – | – | – | – | 215% | – | – | – | –
N[C@@H](CCC(=O)O)C(=O)O [Glu, glutamate, reference compound] | – | – | – | – | – | – | – | – | – | – | – | – | 268.62 % of control | – | – | –
c1ccc(Cn2cnc3c(N4CCSCC4)nc(N4CCSCC4)nc32)cc1 [Compound 5, 9-benzyl-2,6-dithiomorpholino-9H-purine] | 106% | 126% | 129% | 7.03 % of control | – | 19.89 % of control | 121% | 135% | 0.016 ± 0.001 compound/trolox | 0.17 ± 0.06 relative luminiscence | highest potency toward the reduction of oxidative stress | – | – | – | – | –
Oc1cccc(Cn2cnc3c(N4CCCC4)nc(N4CCCC4)nc32)c1 [Compound 26, 9-(3-Hydroxybenzyl)-2,6-di(pyrrolidin-1-yl)-9H-purine] | 108% | 120% | 142% | 4.90 % of control | 14.43 % of control | 20.71 % of control | 107% | 142% | 0.126 ± 0.018 compound/trolox | 0.33 ± 0.06 relative luminiscence | – | – | – | – | – | –
C[C@@H]1NCCc2cc(O)c(O)cc21 [Salsolinol, reference compound] | – | – | – | – | – | – | – | – | – | – | – | – | – | 30.7% | 335.4 % of control and 335.36 % of control | –
COc1cc2c(cc1OC)C(=O)C(CC1CCN(Cc3ccccc3)CC1)C2 (stereo not shown) [Donepezil, reference compound] | – | – | – | 2.76 % of control | 6.73 % of control | 14.25 % of control | – | – | – | – | – | – | – | – | – | –
Nc1nc(NCCc2ccc(O)cc2)nc2nc(-c3ccco3)nn12 [ZM241385, reference compound] | – | – | – | 1.95 % of control | 7.03 % of control | 9.31 % of control | – | 102% | – | – | – | – | – | – | – | –
c1ccc(Cn2cnc3c(N4CCCCC4)nc(N4CCCC4)nc32)cc1 [Compound 78, 9-Benzyl-6-(piperidin-1-yl)-2-(pyrrolidin-1-yl)-9H-purine] | 106% | 120% | 134% | N/A (N/A = no protection) | 17.95 % of control | N/A (N/A = no protection) | 136% | 238% | 0.071 ± 0.005 compound/trolox | 0.23 ± 0.03 relative luminiscence | – | – | – | – | – | OS level reaching threshold of negative controls
c1ccc(Cn2cnc3c(N4CCOCC4)nc(N4CCOCC4)nc32)cc1 [Compound 4, 2,6-dimorpholino-9-benzylpurine] | 106% | 113% | 146% | 1.70 % of control | 8.11 % of control | 21.12 % of control | 106% | 155% | 0.007 ± 0.002 compound/trolox | 0.19 ± 0.02 relative luminiscence | – | – | – | – | – | –
Clc1cccc(Cl)c1Cn1cnc2c(N3CCCC3)nc(N3CCCC3)nc21 [Compound 74, 9-(2,6-Dichlorobenzyl)-2,6-di(pyrrolidine-1-yl)-9H-purine] | 111% | 138% | 152% | 8.57 % of control | 20.24 % of control | 22.35 % of control | 126% | 179% | – | 0.38 ± 0.08 relative luminiscence | – | – | – | – | – | –
CC(=O)N(O)CCCCCNC(=O)CCC(=O)N(O)CCCCCNC(=O)CCC(=O)N(O)CCCCCN [Deferoxamine, reference compound] | – | – | – | 1.43 % of control | 4.86 % of control | 10.52 % of control | – | 101% | – | – | – | – | – | – | – | –
